Laboratory results from PubChem BioAssay (NCI).
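Step 1: Grow cells in 96-well plates. Step 2: Expose to compound for 48 hours at 5 concentrations. Step 3: Interpolate endpoints linearly; if unreached, use highest concentration. At the TGI there is no net growth.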

Columns and labels:
Assay in all cases: inhibition of tumour cell growth, NCI panel, 48 h
[1] = system: SK-MEL-2 melanoma
[2] = system: HL-60(TB) leukemia
[3] = system: ACHN renal
[4] = system: COLO 205 colon
[5] = system: SK-MEL-28 melanoma
[6] = system: SK-MEL-5 melanoma
[7] = system: OVCAR-3 ovarian
[8] = system: OVCAR-8 ovarian
[9] = system: HOP-62 NSCLC
[10] = system: IGROV1 ovarian
[11] = system: SF-295 CNS
[12] = system: LOX IMVI melanoma
[13] = system: HS 578T breast
[14] = system: A498 renal
[15] = system: UO-31 renal
[16] = system: MDA-N
[17] = system: T-47D breast
[18] = system: SF-268 CNS
[19] = system: SR leukemia
[20] = system: HT29 colon
[21] = system: TK-10 renal
[22] = system: U251 CNS
[23] = system: PC-3 prostate
[24] = system: K-562 leukemia
[25] = system: CAKI-1 renal
[26] = system: MDA-MB-231 breast
[27] = system: NCI-H23 lung
[28] = system: 786-0 renal
[29] = system: NCI-H522 lung
[30] = system: RPMI-8226 leukemia
[31] = system: OVCAR-5 ovarian
[32] = system: KM12 colon
[33] = system: SW-620 colon
[34] = system: RXF 393 renal
[35] = system: UACC-62 melanoma
[36] = system: EKVX NSCLC
[37] = system: HCT-15 colon
[38] = system: MOLT-4 leukemia
[39] = system: MDA-MB-435
[40] = system: NCI-H460 lung
[41] = system: HCC-2998 colon
[42] = system: MALME-3M melanoma
[43] = system: DU-145 prostate
[44] = system: SNB-75 CNS
[45] = system: MCF7 breast
[46] = system: SN12C renal
[47] = system: OVCAR-4 ovarian
[48] = system: UACC-257 melanoma
[49] = system: BT-549 breast
[50] = system: SNB-19 CNS
[51] = system: NCI-H226 lung
[52] = system: NCI/ADR-RES ovarian
[53] = system: HCT-116 colon
[54] = system: CCRF-CEM leukemia
[55] = system: M14 melanoma
[56] = system: A549 NSCLC
[57] = system: SF-539 CNS

Compound: O=C1/C(=C/c2cc3c(=O)c4ccccc4sc3s2)NC(=S)N1c1ccccc1
- TGI [1]: > 100 µM
- TGI [2]: 66.9 µM
- TGI [3]: > 100 µM
- TGI [4]: > 100 µM
- TGI [5]: > 100 µM
- TGI [6]: > 100 µM
- TGI [7]: > 100 µM
- TGI [8]: > 100 µM
- TGI [9]: > 100 µM
- TGI [10]: > 100 µM
- TGI [11]: > 100 µM
- TGI [12]: > 100 µM
- TGI [13]: > 100 µM
- TGI [14]: > 100 µM
- TGI [15]: > 100 µM
- TGI [16]: > 100 µM
- TGI [17]: > 100 µM
- TGI [18]: > 100 µM
- TGI [19]: 49.6 µM
- TGI [20]: > 100 µM
- TGI [21]: > 100 µM
- TGI [22]: > 100 µM
- TGI [23]: > 100 µM
- TGI [24]: > 100 µM
- TGI [25]: > 100 µM
- TGI [26]: > 100 µM
- TGI [27]: > 100 µM
- TGI [28]: > 100 µM
- TGI [29]: > 100 µM
- TGI [30]: > 100 µM
- TGI [31]: > 100 µM
- TGI [32]: > 100 µM
- TGI [33]: > 100 µM
- TGI [34]: > 100 µM
- TGI [35]: > 100 µM
- TGI [36]: > 100 µM
- TGI [37]: > 100 µM
- TGI [38]: > 100 µM
- TGI [39]: > 100 µM
- TGI [40]: > 100 µM
- TGI [41]: > 100 µM
- TGI [42]: > 100 µM
- TGI [43]: > 100 µM
- TGI [44]: > 100 µM
- TGI [45]: > 100 µM
- TGI [46]: > 100 µM
- TGI [47]: > 100 µM
- TGI [48]: > 100 µM
- TGI [49]: > 100 µM
- TGI [50]: > 100 µM
- TGI [51]: > 100 µM
- TGI [52]: > 100 µM
- TGI [53]: > 100 µM

Compound: CNC(=S)Nc1sc2c(c1C#N)CCCC2
- TGI [1]: > 75 µM
- TGI [2]: > 75 µM
- TGI [3]: > 75 µM
- TGI [4]: > 75 µM
- TGI [5]: > 75 µM
- TGI [6]: > 75 µM
- TGI [7]: > 75 µM
- TGI [8]: > 75 µM
- TGI [9]: > 75 µM
- TGI [10]: > 75 µM
- TGI [11]: > 75 µM
- TGI [12]: > 75 µM
- TGI [13]: > 75 µM
- TGI [14]: > 75 µM
- TGI [15]: > 75 µM
- TGI [16]: > 75 µM
- TGI [17]: > 75 µM
- TGI [18]: > 75 µM
- TGI [19]: > 75 µM
- TGI [20]: > 75 µM
- TGI [21]: > 75 µM
- TGI [22]: > 75 µM
- TGI [23]: > 75 µM
- TGI [24]: > 75 µM
- TGI [25]: > 75 µM
- TGI [26]: > 75 µM
- TGI [27]: > 75 µM
- TGI [28]: > 75 µM
- TGI [29]: > 75 µM
- TGI [30]: > 75 µM
- TGI [31]: > 75 µM
- TGI [32]: > 75 µM
- TGI [33]: > 75 µM
- TGI [34]: > 75 µM
- TGI [35]: > 75 µM
- TGI [36]: > 75 µM
- TGI [37]: > 75 µM
- TGI [38]: > 75 µM
- TGI [39]: > 75 µM
- TGI [40]: > 75 µM
- TGI [41]: > 75 µM
- TGI [42]: > 75 µM
- TGI [43]: > 75 µM
- TGI [44]: > 75 µM
- TGI [45]: > 75 µM
- TGI [46]: > 75 µM
- TGI [47]: > 75 µM
- TGI [48]: > 75 µM
- TGI [49]: > 75 µM
- TGI [50]: > 75 µM
- TGI [51]: > 75 µM
- TGI [52]: > 75 µM
- TGI [53]: > 75 µM

Compound: Cn1ncc2[nH]cnc2c1=S
- TGI [1]: > 100 µM
- TGI [2]: 24.6 µM
- TGI [3]: > 100 µM
- TGI [4]: > 100 µM
- TGI [5]: > 100 µM
- TGI [6]: > 100 µM
- TGI [54]: 66.8 µM
- TGI [7]: > 100 µM
- TGI [8]: > 100 µM
- TGI [9]: > 100 µM
- TGI [55]: > 100 µM
- TGI [10]: > 100 µM
- TGI [11]: > 100 µM
- TGI [13]: > 100 µM
- TGI [14]: > 100 µM
- TGI [15]: > 100 µM
- TGI [16]: > 100 µM
- TGI [17]: > 100 µM
- TGI [18]: > 100 µM
- TGI [19]: > 100 µM
- TGI [20]: > 100 µM
- TGI [21]: > 100 µM
- TGI [22]: > 100 µM
- TGI [23]: > 100 µM
- TGI [24]: > 100 µM
- TGI [25]: > 100 µM
- TGI [26]: > 100 µM
- TGI [27]: > 100 µM
- TGI [28]: > 100 µM
- TGI [30]: > 100 µM
- TGI [56]: > 100 µM
- TGI [31]: > 100 µM
- TGI [32]: > 100 µM
- TGI [57]: > 100 µM
- TGI [33]: > 100 µM
- TGI [34]: > 100 µM
- TGI [35]: > 100 µM
- TGI [36]: > 100 µM
- TGI [37]: > 100 µM
- TGI [38]: > 100 µM
- TGI [39]: > 100 µM
- TGI [40]: > 100 µM
- TGI [43]: > 100 µM
- TGI [44]: > 100 µM
- TGI [45]: > 100 µM
- TGI [46]: > 100 µM
- TGI [48]: > 100 µM
- TGI [49]: > 100 µM
- TGI [50]: > 100 µM
- TGI [51]: > 100 µM
- TGI [52]: > 100 µM
- TGI [53]: > 100 µM
